Laboratory results: ChEMBL document CHEMBL3885861, “Open TG-GATES”

Species: Rattus norvegicus
Test: Open TG-GATES - Regimen: Daily Repeat
Assay type: toxicity, organism-based, Sprague-Dawley
Design: regimen Daily Repeat, gender Male, age 6 weeks
Settings: in vivo, po, 1000 mg/kg, route gavage, dose level High; for APTT / Bas / Eos / Fbg / Hb / Ht / Lym / MCH / MCHC / MCV / Mono / Neu / PT / Plat / RBC / Ret / WBC: tissue Blood; for KIDNEY_L / KIDNEY_R / KIDNEY_TOTAL: tissue Kidney; for LIVER: tissue Liver; for A/G / ALP / ALT / AST / BUN / CRE / Ca / Cl / DBIL / GLC / IP / K / LDH / Na / PL / RALB / TBIL / TC / TG / TP / gamma-GTP: tissue Plasma

## CN(C)[C@@H]1C(O)=C(C(N)=O)C(=O)[C@@]2(O)C(O)=C3C(=O)c4c(O)cccc4[C@@](C)(O)[C@H]3C[C@@H]12 [TETRACYCLINE]
72 h, time 3 day
  TERMINAL_BW: 196.1 g
  APTT: 16.3 s
  Bas: 0%
  Eos: 1.2%
  Fbg: 220.4 mg/dL
  Hb: 13.2 g/dL
  Ht: 39.6%
  Lym: 87.6%
  MCH: 21.2 pg
  MCHC: 33.2%
  MCV: 63.8 fL
  Mono: 4.6%
  Neu: 6.6%
  PT: 12.3 s
  Plat: 111.2 x10_4/uL
  RBC: 621.8 x10_4/ul
  Ret: 5.2%
  WBC: 98.6 x10_2/uL
  KIDNEY_L: 0.9 g
  KIDNEY_R: 0.9 g
  KIDNEY_TOTAL: 1.8 g
  LIVER: 8.4 g
  A/G: 2.2
  ALP: 1151 IU/L
  ALT: 37.8 IU/L
  AST: 72.2 IU/L
  BUN: 17.2 mg/dL
  CRE: 0.5 mg/dL
  Ca: 10.8 mg/dL
  Cl: 105.8 meq/L
  DBIL: 0.006 mg/dL
  GLC: 181 mg/dL
  IP: 9 mg/dL
  K: 4.6 meq/L
  LDH: 144.4 IU/L
  Na: 140.8 meq/L
  PL: 143.2 mg/dL
  RALB: 3.8 g/dL
  TBIL: 0.3 mg/dL
  TC: 85.8 mg/dL
  TG: 40.4 mg/dL
  TP: 5.5 g/dL
  gamma-GTP: 1.8 IU/L
[…], time 7 day
  TERMINAL_BW: 225.1 g
  APTT: 16 s
  Bas: 0%
  Eos: 1.2%
  Fbg: 220.8 mg/dL
  Hb: 13.3 g/dL
  Ht: 39.5%
  Lym: 86.6%
  MCH: 20.8 pg
  MCHC: 33.6%
  MCV: 61.7 fL
  Mono: 5.8%
  Neu: 6.8%
  PT: 12.3 s
  Plat: 115 x10_4/uL
  RBC: 639.8 x10_4/ul
  Ret: 6.4%
  WBC: 124.1 x10_2/uL
  KIDNEY_L: 1 g
  KIDNEY_R: 1 g
  KIDNEY_TOTAL: 1.9 g
  LIVER: 9.5 g
  A/G: 2.1
  ALP: 1114.8 IU/L
  ALT: 36.6 IU/L
  AST: 72 IU/L
  BUN: 17 mg/dL
  CRE: 0.5 mg/dL
  Ca: 11.1 mg/dL
  Cl: 106.2 meq/L
  DBIL: 0.008 mg/dL
  GLC: 179.6 mg/dL
  IP: 9 mg/dL
  K: 5.2 meq/L
  LDH: 116.4 IU/L
  Na: 140.4 meq/L
  PL: 139 mg/dL
  RALB: 3.8 g/dL
  TBIL: 0.2 mg/dL
  TC: 74 mg/dL
  TG: 56.2 mg/dL
  TP: 5.6 g/dL
  gamma-GTP: 1.2 IU/L
[…], time 14 day
  TERMINAL_BW: 289.3 g
  APTT: 16.2 s
  Bas: 0%
  Eos: 1%
  Fbg: 225.4 mg/dL
  Hb: 13.5 g/dL
  Ht: 40.9%
  Lym: 91.2%
  MCH: 20.6 pg
  MCHC: 33%
  MCV: 62.5 fL
  Mono: 2.6%
  Neu: 5.4%
  PT: 11.9 s
  Plat: 109.6 x10_4/uL
  RBC: 656 x10_4/ul
  Ret: 6.7%
  WBC: 146 x10_2/uL
  KIDNEY_L: 1.1 g
  KIDNEY_R: 1.2 g
  KIDNEY_TOTAL: 2.3 g
  LIVER: 11.9 g
  A/G: 2
  ALP: 1024 IU/L
  ALT: 33.8 IU/L
  AST: 64.8 IU/L
  BUN: 20.2 mg/dL
  CRE: 0.6 mg/dL
  Ca: 11.3 mg/dL
  Cl: 104 meq/L
  DBIL: 0.074 mg/dL
  GLC: 176 mg/dL
  IP: 9.2 mg/dL
  K: 4.9 meq/L
  LDH: 156.6 IU/L
  Na: 143 meq/L
  PL: 168.8 mg/dL
  RALB: 3.9 g/dL
  TBIL: 0.3 mg/dL
  TC: 89.2 mg/dL
  TG: 84.2 mg/dL
  TP: 5.9 g/dL
  gamma-GTP: 2 IU/L
[…], time 28 day
  TERMINAL_BW: 356 g
  APTT: 16.6 s
  Bas: 0%
  Eos: 1%
  Fbg: 233.6 mg/dL
  Hb: 14.4 g/dL
  Ht: 43.2%
  Lym: 86.8%
  MCH: 19 pg
  MCHC: 33.4%
  MCV: 56.9 fL
  Mono: 3.6%
  Neu: 8.6%
  PT: 11.8 s
  Plat: 95 x10_4/uL
  RBC: 761.4 x10_4/ul
  Ret: 2.9%
  WBC: 154.2 x10_2/uL
  KIDNEY_L: 1.3 g
  KIDNEY_R: 1.2 g
  KIDNEY_TOTAL: 2.5 g
  LIVER: 12.2 g
  A/G: 1.8
  ALP: 773.6 IU/L
  ALT: 35.2 IU/L
  AST: 71.8 IU/L
  BUN: 19.2 mg/dL
  CRE: 0.6 mg/dL
  Ca: 11.1 mg/dL
  Cl: 106 meq/L
  DBIL: 0.024 mg/dL
  GLC: 168.8 mg/dL
  IP: 7.6 mg/dL
  K: 4.4 meq/L
  LDH: 143.6 IU/L
  Na: 142 meq/L
  PL: 140.4 mg/dL
  RALB: 3.6 g/dL
  TBIL: 0.3 mg/dL
  TC: 77.6 mg/dL
  TG: 73.8 mg/dL
  TP: 5.7 g/dL
  gamma-GTP: 1.6 IU/L
